{"source": "patent US20060239990A1", "about": "“Protein Arginine N-Methyltransferase 2 (PRMT-2)” (priority 2003, published 2006)", "key": {"[1]": {"system": "IκBα", "test": "Confocal quantification of nuclear IκBα in PRMT2−/− fibroblasts", "format": "cell-based, mouse", "conditions": "after TNF-α 30 min, 30 minutes LMB", "method": "Immunohistochemistry and confocal microscopy. PRMT2^−/− fibroblasts were transfected with a HA-tagged PRMT2 expression vector. 36 hrs after transfection the cells were treated with TNF-α for 30 min. The media was then removed and cells were incubated for an additional 30 minutes in the presence or absence of LMB. Cells were fixed, permeabilized with CytoFix-CytoPerm (BD Biosciences) for 20 minutes, and washed with Perm/Wash buffer (BD Biosciences). IκBα (Rabbit Polyclonal antibody, 1:1000; Santa Cruz Biotechnology) and HA (Rat Monoclonal antibody, 1:500; Roche) were diluted in Perm/Wash buffer and incubated for 1 hr. After two washes cells were stained with anti rabbit Alexa 488 and anti rat Alexa […] (1:1000, Invitrogen) for 30 min. Cells were washed and mounted with Ultracruz mounting media (Santa Cruz) containing DAPI. Confocal microscopy was performed using a Leica confocal microscope."}, "[2]": {"system": "Stat3", "test": "Leptin-stimulated Stat3 tyrosine phosphorylation in VSMC nuclear extracts", "format": "cell-based, mouse", "conditions": "o-vanadate 200 μM pretreatment 15 min", "method": "Cytoplasmic/nuclear extracts were prepared by Dounce homogenizing cells in Cytoplasmic lysis buffer (20 mM HEPES, pH7.9, 10 mM KCl, 1 mM MgCl2, 1% NP-40, 10% glycerol, 100 mM NaF, 1 mM Na3VO4, 1× protease inhibitors cocktail), and sedimenting nuclei by centrifugation at 1,000 rpm for 5 min. The supernatants were removed as samples of cytoplasmic fraction. The nuclei were extracted with nuclear lysis buffer (20 mM HEPES, pH7.9, 300 mM NaCl, 10 mM KCl, 1 mM MgCl2, 1% […], 10% glycerol, […], 1 mM Na3VO4, 1× protease inhibitors cocktail), and then subjected to the immunoblotting.\nImmunoblotting was performed by boiling samples for 5 min at 95° C. followed by centrifugation for 1 min at 4° C. Aliquots of the supernatant were subjected to 7.5, 10% or 4-15% SDS-PAGE. Proteins in the gel were transferred to a nitrocellulose membrane by electroblotting. The membranes were treated with either anti-pTyr, anti-STAT3, anti-phospho STAT3, anti-α-metR, anti-IRS-1, anti-Flag, anti-phospho IRS-1, anti-arginine (mono- and di-methyl), or anti-β-actin antibodies followed by incubation with secondary antibodies conjugated with HRP. Immunoreactive proteins were detected either by ECL or by ECL plus system (Amersham Pharmacia Biotech). In some cases, bands were quantified using the NIH Image software (Image J version 1.2; National Institutes of Health, Bethesda, Md.). […]"}, "[3]": {"target": "T1, RB (Homo sapiens, UniProt P06400)", "T1 construct": "coding region of RB cDNA was subcloned into pGEX-6P (Amersham/Pharmacia) for generation of GST-RB; made in house", "T1 sequence (P06400 1-928)": "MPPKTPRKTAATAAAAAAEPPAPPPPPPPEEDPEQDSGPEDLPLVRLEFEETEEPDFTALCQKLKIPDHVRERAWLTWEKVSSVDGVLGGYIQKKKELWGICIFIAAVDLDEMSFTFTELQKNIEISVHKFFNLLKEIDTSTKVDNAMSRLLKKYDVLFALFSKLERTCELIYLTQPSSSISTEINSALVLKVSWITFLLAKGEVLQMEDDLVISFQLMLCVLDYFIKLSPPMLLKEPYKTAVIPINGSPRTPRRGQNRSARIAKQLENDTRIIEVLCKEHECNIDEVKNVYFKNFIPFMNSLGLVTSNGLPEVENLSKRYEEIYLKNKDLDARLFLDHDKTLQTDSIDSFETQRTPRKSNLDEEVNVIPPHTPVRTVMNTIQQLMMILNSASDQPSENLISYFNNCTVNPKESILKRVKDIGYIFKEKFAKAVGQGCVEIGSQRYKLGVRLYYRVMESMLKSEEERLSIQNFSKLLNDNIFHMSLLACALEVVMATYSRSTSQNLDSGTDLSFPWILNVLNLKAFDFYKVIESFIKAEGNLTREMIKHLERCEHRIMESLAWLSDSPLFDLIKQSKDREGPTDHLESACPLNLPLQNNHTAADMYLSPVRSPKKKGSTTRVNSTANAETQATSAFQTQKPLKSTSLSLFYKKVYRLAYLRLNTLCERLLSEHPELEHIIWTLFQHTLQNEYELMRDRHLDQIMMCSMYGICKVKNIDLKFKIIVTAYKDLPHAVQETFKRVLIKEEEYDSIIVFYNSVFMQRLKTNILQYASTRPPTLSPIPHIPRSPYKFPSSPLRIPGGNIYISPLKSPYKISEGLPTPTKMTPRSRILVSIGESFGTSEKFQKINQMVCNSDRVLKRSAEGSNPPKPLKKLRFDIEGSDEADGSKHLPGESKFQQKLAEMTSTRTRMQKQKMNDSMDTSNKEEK", "test": "In vitro binding assay with GST-RB", "conditions": "S35-labeled in vitro translated protein", "method": "The crude cell lysate of the GST-fusion proteins was prepared and purified according to the manufacture's protocol (Amersham/Pharmacia). [^35S]-methionine-labeled protein was produced by in vitro transcription/translation using the TNT T7-coupled reticulocyte lysate system (Promega). [^35S]-methionine-labeled protein and GST-fusion protein bound to glutathione sepharose 4B beads were incubated in 500 μl of HNE buffer (50 mM Hepes, pH 7.8, 150 mM NaCl, 1 mM EDTA, 1 mM DTT, 1% NP40, and 1× protease inhibitor mix (Complete: Roche)) at 4° C. for 1 hour. Beads were washed four times with HNE buffer, and then analyzed on an SDS-PAGE gradient gel (4-15%). For the detection of endogenous PRMT-2 interaction with RB, MEFs were lysed with WCL buffer (50 mM Hepes, pH 7.8, 400 mM NaCl, 2 mM EDTA, 1 mM DTT, 0.2% NP40, 10% Glycerol, 20 mM α-glycerophosphate, 5 mM NaF, 0.1 mM NaVO4, and 1× protease inhibitor mix). Then, 1 mg of whole cell extracts were incubated with HNE buffer without DTT and 3 μg of antibodies as indicated. The immune complexes were isolated using protein G beads, and washed four times with HNE buffer. The precipitated protein was boiled with SDS-loading buffer and resolved on SDS-PAGE. […]"}, "[4]": {"system": "HIV-1 LTR", "test": "HIV-1 reporter transcription, transient co-transfection", "format": "cell-based, human", "conditions": "293T cells, expression plasmid co-transfected with HIV-1 reporter plasmid", "method": "Cell culture, transfection, and reporter gene assays. The E1A-transformed, human kidney cell line, 293, and NIH-3T3 cells were maintained in Dulbecco's Modified Eagle Medium (DMEM) supplemented with 10% fetal calf serum and penicillin-streptomycin at 37° C. in 5% carbon dioxide in tissue culture grade Petri dishes. PRMT-2−/− mouse embryo fibroblasts (MEFs) and wild type MEFs were prepared from day 13.5 embryos and maintained in DMEM supplemented with 10% fetal calf serum. MEFs at passage 4 were used in this experiment. Lipofectamine Plus™ reagent (Boehringer Mannheim) was used to transfect both 293 and NIH-3T3 cells according to directions from the manufacturer. […] TNF-α stimulation of cells was done using recombinant TNF-α (200 U/ml) for 12 hours. Transfected cells were harvested at 36 hours, and CAT activity was assayed on 10 to 100 μg of protein from whole cell extracts. CAT assays were performed essentially as described in Leung, K. & Nabel, G. J. Nature 333, 776-778 (1988). To analyze the κB-reporter activity in MEFs, cells were transfected with the reporter (2×kB-Luc) and PRL-TK vector (Promega) using FuGENE6 transfection reagent (Roche). Luciferase activity was analyzed by Dual-Luciferase Reporter Assay System (Promega). […]"}}, "data": [{"compound": "CCC(=C/[C@H](C)C/C=C/C(C)=C/[C@@H](C)C(=O)[C@@H](C)[C@H](O)[C@@H](C)C/C(C)=C/C(=O)O)/C=C/[C@@H]1OC(=O)C=C[C@@H]1C", "note": "[LMB, leptomycin B]", "values": [{"measurement": "nuclear IκBα", "setting": "[1]", "result": "promoted nuclear accumulation of IκBα"}]}, {"compound": "[O]=[V]([O-])([O-])[O-]", "note": "[o-vanadate]", "values": [{"measurement": "leptin-stimulated tyrosine phosphorylation of Stat3", "setting": "[2]; PRMT2−/− VSMC nuclear extracts", "result": "no enhancement of tyrosine phosphorylation of Stat3"}, {"measurement": "leptin-stimulated tyrosine phosphorylation of Stat3", "setting": "[2]; wild-type VSMC nuclear extracts", "result": "further enhanced leptin-stimulated tyrosine phosphorylation of Stat3"}]}, {"compound": "PRMT1: human protein arginine methyltransferase 1, expression construct [reference compound]", "values": [{"measurement": "binding to RB", "setting": "[3]", "result": "do not bind RB"}, {"measurement": "stimulation of HIV-1 transcription", "setting": "[4]", "result": "about 10 fold"}]}]}
